Reference: US12178205B2, “Systems and methods for storing and preserving implantable devices” (Rutgers, The State University of New Jersey, priority 2016, dated 2024)

System: Staphylococcus aureus (ATCC 6538)
Assay: Antimicrobial effectiveness of zinc chloride on Staphylococcus aureus suspension (exposure, neutralization, assay for survivors)
Type: cell-based
Details: for CFU/mL of Survivors / Log10 Survivors: 37±1° C.; for Number of Survivors: duplicate plate counts; for Percent Reduction: vs test population control 4.68 × 10^5 CFU/mL; for Log10 Reduction: vs test population control Log10 5.67
Procedure: (§1) A suspension of test organism Staphylococcus aureus (ATCC 6538) was obtained by adding colonies on tryptic soy agar and 5% Sheep Blood (BAP) with incubation parameters of 35° C.-37° C., aerobic in 0.85% saline to match a 3.0 McFarland standard. The suspension was exposed to a test substance of zinc chloride at specified concentrations of 0.1%, 0.3%, and 0.5% from a 1% stock solution at specified exposure times of 10 minutes, 2 hours, 6 hours, and 24 hours at a temperature of 37±1° C. (37.2° C.). Latheen broth and 1% sodium bicarbonate (9.9 mL) were used as a neutralizer. After exposure, an aliquot of the suspension was transferred to the neutralizer and was assayed for survivors.
as §1

[1] = exposure 10 minutes, dilution (volume plated) 10^0 (0.100 mL)
[2] = exposure 10 minutes, dilution (volume plated) 10^0 (1.00 mL)

Row | SMILES | CFU/mL of Survivors (exposure 10 minutes) | Log10 Survivors (exposure 10 minutes) | Number of Survivors [1] | Number of Survivors [2] | Number of Survivors (exposure 10 minutes, dilution (volume plated) 10^1 (0.100 mL)) | Percent Reduction (exposure 10 minutes) | Log10 Reduction (exposure 10 minutes) | CFU/mL of Survivors (exposure 2 hours) | Log10 Survivors (exposure 2 hours) | Percent Reduction (exposure 2 hours) [%] | Log10 Reduction (exposure 2 hours) | CFU/mL of Survivors (exposure 6 hours) | Log10 Survivors (exposure 6 hours) | Percent Reduction (exposure 6 hours) [%] | Log10 Reduction (exposure 6 hours) | CFU/mL of Survivors (exposure 24 hours) | Log10 Survivors (exposure 24 hours) | Percent Reduction (exposure 24 hours) [%] | Log10 Reduction (exposure 24 hours)
1 | [Cl-].[Cl-].[Zn+2] [0.1% Zinc Chloride, zinc chloride] | 6.8 × 10^5 CFU/mL | 5.83 | T, T | T, T | T, T | None | None | 4.9 × 10^2 CFU/mL | 2.69 | >99.8 | 2.98 | 2.3 × 10^2 CFU/mL | 2.36 | >99.9 | 3.31 | 4 × 10^1 CFU/mL | 1.60 | 99.99 | 4.07
2 | [Cl-].[Cl-].[Zn+2] [0.3% Zinc Chloride, zinc chloride] | 5.9 × 10^4 CFU/mL | 4.77 | T, T | T, T |  | 87.4% | 0.90 | 1 × 10^1 CFU/mL | 1.00 | >99.99 | 4.67 | <5 CFU/mL | <0.70 | >99.99 | >4.97 | <5 CFU/mL | <0.70 | >99.99 | >4.97
3 | [Cl-].[Cl-].[Zn+2] [0.5% Zinc Chloride, zinc chloride] | 2.9 × 10^4 CFU/mL | 4.46 | T, T | T, T |  | 93.8% | 1.21 | 1 × 10^1 CFU/mL | 1.00 | >99.99 | 4.67 | <5 CFU/mL | <0.70 | >99.99 | >4.97 | <5 CFU/mL | <0.70 | >99.99 | >4.97
